Reference: EP0102404A1, “Novel polycyclic fused pyrazole compounds useful as antiinflammatory agents and preparation thereof” (STERLING DRUG INC., priority 1982, dated 1984)

Experiments:
Type in all cases: in vivo
[1] = system: Mature female rats; assay: Endocrine profile (thymus, adrenal, body weight, food consumption) after oral medication for 2 weeks; details: compared with the controls
Method: The test procedures used to determine the biological activities of the compounds of the invention were carried out as follows: • Endocrine Profile: Mature female rats with an average body weight of 202 g and a body weight range of 15 g or less were medicated orally with test compound for 2 weeks. The test compound was prepared as a solution or suspension in 1% gum tragacanth or 0.75% methyl cellulose. On the day following the last medication, the rats were killed and the thymus and adrenal of each rat were removed, cleaned, and weighed. Body weights and food consumptions were also recorded.

[2] = system: Male rats; assay: Anti-inflammatory activity (a-tocopherol pouch test)
Method: Male rats which weighed 120 g were selected for testing. A rapid subcutaneous injection of 25 mL of air was made between the scapulae of each rat. […] The test compound was administered in daily oral doses for 7 days beginning on the day of pouch formation. The compound to be tested was suspended in 1% gum tragacanth. Twenty-four hours after the last medication, the pouches were dissected free, and the fluid volume was measured.

[3] = system: Mature male rats, bilaterally adrenalectomized; assay: Glycogenic activity (liver glycogen deposition test); details: for liver glycogen deposition: adrenalectomized male rats, vehicle 1.75 + 0.04 mg/g
Text: Glycogenic Activity: Mature male rats were bilaterally adrenalectomized 5 days prior to the test. These rats were medicated orally with the test compound for 5 days. Seven hours after the last medication, the rats (which have been fasted overnight) were anesthetized with sodium pentobarbital and a portion of one lobe of the liver was removed and frozen on dry ice for subsequent glycogen determination.

SMILES	reduction in adrenal weight ([1]; 100 mg/kg) [%]	reduction in body weight gain ([1]; 100 mg/kg) [%]	reduction in thymus weight ([1]; 100 mg/kg) [%]	activity in the a-tocopherol pouch test ([2]; 100 mg/kg, daily oral doses for 7 days, male rats)	reduction in adrenal weight ([1]; 5 mg/kg) [%]	reduction in body weight gain ([1]; 5 mg/kg) [%]	reduction in weight of the thymus ([1]; 5 mg/kg) [%]	ED50 ([2]; Rattus norvegicus, 168 h, daily oral doses for 7 days, male rats, inhibition of liquid exudate) [mg/kg]	anti-inflammatory activity by the a-tocopherol pouch test ([2]; rats, result in words)	liver glycogen deposition ([3]; 9 mg/kg/day x 5, oral)	liver glycogen deposition ([3]; 27 mg/kg/day x 5, oral)	oral glucocorticoid activity by the liver glycogen deposition test ([3]; rats, oral, result in words)
CCOC(=O)C1(C(=O)OCC)CCC=C2C1CCC1=Cc3c(cnn3-c3ccc(F)cc3)CC12C (stereo not drawn) [Compound II (R = CH2CH3), Diethyl 8-(4-fluorophenyl)-2,3,4,4a,5,6,11,11a-octahydro-11a-methyl-8H-phenanthro[2,3-c]pyrazole-4,4-dicarboxylate]	47	186	80	inactive	–	–	–	–	–	–	–	–
CC(=O)C1CC=C2C(CCC3=Cc4c(cnn4-c4ccc(F)cc4)CC32C)C1C(C)=O (single isomer, unassigned) [Compound I (R = CH3), 1,1'-[8-(4-Fluorophenyl)-2,3,4,4a,5,6,11,11a-octahydro-11a-methyl-8H-phenanthro[2,3-c]pyrazole-3,4-diyl]bis[ethanone]]	–	–	–	–	40	80	59	23	anti-inflammatory activity	9.42 + 0.65 mg/g of tissue	25.48 + 3.39 mg/g of tissue	oral glucocorticoid activity
